For assay [1], the system named is Atherosclerotic mice (24 weeks old ApoE−/− mice under fat diet). Briefly: Atherosclerosis in mouse: plasma sTREM-1 after peptide treatment. The class given is in vivo. As for the experimental part:
(B) Atherosclerotic mice were randomized to receive LR12 (100 μg in 0.2 mL NaCl 0.9% once a day for 4 weeks) or scrambled-LR12 (100 μg in 0.2 mL NaCl 0.9% once a day for 4 weeks), i.p. injections. Blood samples were obtained at the end of the treatment (4 weeks) to assess sTREM-1 plasma concentrations. Physiologic baseline is calculated from dosage in healthy animals. N=10 per group.
(§1) Mice serum levels of sTREM-1 were determined by ELISA (Mouse TREM-1 Quantikine ELISA Kit, RnDsystems) using a detection limit at 31.3 pg/mL.
12 and 24-weeks old male ApoE−/− mice were put on a fat (lipids 15%, cholesterol 1.25%, no cholate) or chow diet and were treated by daily intraperitoneal injection of peptides (100 μg/day). After 4 weeks of treatment, mice were sacrificed for blood sampling.
Our second objective was to assess whether a treatment could impact plasma levels of sTREM-1. Atherosclerotic mice (24 weeks old ApoE−/− mice under fat diet) were treated by LR12 peptide, which targets TREM-1 ligand, or a control peptide LR12-scrambled.

Assay [2] concerns infarcted mice. Briefly: Mouse model of myocardial infarction: plasma sTREM-1 after peptide treatment. The class given is in vivo. The following applies: for sTREM-1 levels: daily i.p. injection for 5 days, vs LR12-scrambled (FIG. 4A). As for the experimental part:
(A) Adult male Balb/c mice (20-23 g) were subjected to myocardial ischemia and were randomly grouped (n=10 per group) to receive repeated LR12 (100 μg in 0.2 mL NaCl 0.9% once a day for 5 days) or scrambled-LR12 (100 μg in 0.2 mL NaCl 0.9% once a day for 5 days), i.p. injections. Blood samples was obtained at 24, 72 and 168 hours after cardiac ischemic event to measure plasma sTREM-1 levels. Physiologic baseline is calculated from dosage in healthy animals. N=10 per group and per timepoint.
as §1
All procedures were performed on mice male C57BL/C ranging in age from 6-8 weeks. Mice were anesthetized by an intraperitoneal injection of xylazine (60 mg/kg) and fixed in supine position. The trachea was intubated and ventilated (the tidal volume was 200 μl/25 g and the respiratory rate was 120 breaths/min). After a left thoracotomy, the left coronary artery was identified and ligated with an 8-0 prolene surgical suture at 1.0 mm distal from tip of the left auricle. LAD occlusion was confirmed by a change in myocardial color from red to white in the ischemia area (Left ventricle). The chest was closed and the skin was sutured with 6-0 silk. The animals returned to their cage where they are supervised until their complete recovery.
Mice were randomized to receive or not peptides (daily ip injection for 5 days, 5 mg/kg) and were sacrificed after 24 h, 72 h, 168 h (n=6 per group) by anesthesia followed with pentobarbital sodium overdose for blood sampling.
We also show in infarcted mice that sTREM-1 levels were decreased by LR12 treatment 24 and 72 hours after an ischemic event (FIG. 4A).

“LR12: 12 amino-acids peptide (LQEEDTGEYGCV, SEQ ID NO: 4) known to specifically target TREM-1 ligand (LR12)” came in with a sTREM-1 plasma concentration in assay [1] (24 weeks old ApoE−/− mice under fat diet, 100 μg/day i.p., after 4 weeks of treatment, ELISA) of 189.8 pg/mL. For the same substance, the outcome during atherosclerosis in assay [1] (data not shown) was “better outcome”. In addition, the sTREM-1 levels result in assay [2] (24 hours after ischemic event) and in assay [2] (72 hours after ischemic event) was “decreased” each time. Besides, the “outcome after a cardiac ischemic event” value in assay [2] (data not shown) is recorded as “better outcome”.

For the origin of these results see patent US10948498B2, “Methods and kits for predicting the risk of having a cardiovascular disease or event” (INOTREM, priority 2013, dated 2021).
